From patent US20240182503A1, “MACROCYCLE COMPLEMENT FACTOR B INHIBITORS” (priority 2021, published 2024)

Target: CVF-Bb complex (Homo sapiens (Human), UniProt P00751)
Experiment: biochemical
Assay type: biochemical
Conditions: not given
Protocol: CVF-Bb complex, prepared from purified cobra venom factor, (3 nM) is incubated with a compound of the disclosure at various concentrations for 10 minutes at room temperature in PBS (pH 7.4) containing 10 mM MgCl2 and 0.05% (w/v) CHAPS. Human Complement C3 substrate is added to a final concentration of 1 μM. After 1 hour incubation at room temperature, the enzyme reaction is stopped by addition of a cocktail of concentrated pan-protease inhibitors. The product of the reaction, C3a, is quantified by means of an enzyme-linked-immunosorbent assay and/or denaturing gel electrophoresis (SDS-PAGE). IC50 values are calculated from percentage of inhibition of CVF-Bb activity as a function of test compound concentration.

Question: With `COc1cc(C)c2[nH]ccc2c1CN1CC[C@H]2C[C@H]1c1ccc(C(=O)O)cc1/C=C\CCCCCO2` [Ex. 37, (1^2R,1^4R,Z)-1^1-((5-methoxy-7-methyl-1H-indol-4-yl)methyl)-10-oxa-1(2,4)-piperidina-2(1,2)-benzenacyclodecaphan-3-ene-2^4-carboxylic acid] as the compound, how does the IC50 read?
Answer: 263 nM

Question: How did the IC50 turn out when `CCO[C@H]1CCN(Cc2c(OC)cc(C)c3[nH]ccc23)[C@H](c2ccc(C(=O)O)cc2OCCNC(C)=O)C1` [Ex. 6, 3-(2-acetamidoethoxy)-4-((2S,4S)-4-ethoxy-1-((5-methoxy-7-methyl-1H-indol-4-yl)methyl)piperidin-2-yl)benzoic acid] was run?
Answer: 313 nM

Question: How did the IC50 turn out when `COc1cc(C)c2[nH]ccc2c1CN1CC[C@H]2C[C@H]1c1ccc(C(=O)NS(=O)(=O)C3(C)CC3)cc1OCCCCCCO2` [Ex. 46] was run?
Answer: 311 nM

Question: For `CCO[C@H]1CCN2Cc3c(cc(C)c4[nH]ccc34)OCCCCCCCCOc3cc(C(=O)O)ccc3[C@@H]2C1` [Ex. 30, (19bS,21S)-21-ethoxy-4-methyl-7,8,9,10,11,12,13,14,19b,20,21,22,23,25-tetradecahydro-3H-benzo[7,8]pyrido[1′,2′:5,6][1,9,5]dioxaazacyclo-heptadecino[3,2-e]indole-1^7-carboxylic acid], which IC50 is on record?
Answer: 4910 nM

Question: With `CCO[C@@H]1CCN(Cc2c(OC)cc(C)c3[nH]ccc23)[C@H](c2ccc(C(=O)O)cc2OC)C1` [Ex. 4, 4-((2S,4R)-4-ethoxy-1-((5-methoxy-7-methyl-1H-indol-4-yl)methyl)piperidin-2-yl)-3-methoxybenzoic acid] as the compound, how does the IC50 read?
Answer: 3550 nM

Question: `CCO[C@H]1CCN(Cc2c(OC)cc(C)c3[nH]ccc23)[C@H](c2ccc(C(=O)NS(=O)(=O)CCNC(C)=O)cc2)C1` [Compar. Ex. 2, N-((2-acetamidoethyl)sulfonyl)-4-((2S,4S)-4-ethoxy-1-((5-methoxy-7-methyl-1H-indol-4-yl)methyl)piperidin-2-yl)benzamide, reference compound] was tested. Which IC50 did it give?
Answer: 395 nM

Question: For `CCO[C@H]1CCN2Cc3c(cc(C)c4[nH]ccc34)OCCCCCCCCCCOc3cc(C(=O)O)ccc3[C@@H]2C1` [Ex. 32, (21bS,23S)-23-ethoxy-4-methyl-7,8,9,10,11,12,13,14,15,16,21b,22,23,24,25,2 7-hexadecahydro-3H-benzo[7,8]pyrido[1′,2′:5,6][1,9,5]dioxaazacyclo-nonadecino[3,2-e]indole-19-carboxylic acid], which IC50 is on record?
Answer: > 10000 nM

Question: For `CCO[C@H]1CCN(Cc2c(OC)cc(C)c3[nH]ccc23)[C@H](c2ccc(C(=O)O)cc2OC)C1` [Ex. 3, 4-((2S,4S)-4-ethoxy-1-((5-methoxy-7-methyl-1H-indol-4-yl)methyl)piperidin-2-yl)-3-methoxybenzoic acid], which IC50 is on record?
Answer: 263 nM

Same assay, conditions: read-out: IC50

Question: How did the IC50 turn out when `COc1cc(C)c2[nH]ccc2c1CN1CC[C@H]2C[C@H]1c1ccc(C(=O)NS(=O)(=O)c3ccccc3)cc1OCCCCCO2` [Ex. 70, (1^2S,1^4S)-1^1-((5-methoxy-7-methyl-1H-indol-4-yl)methyl)-N-(phenylsulfonyl)-3,9-dioxa-1(2,4)-piperidina-2(1,2)-benzenacyclononaphane-2^4-carboxamide] was run?
Answer: 543 nM

Question: With `COc1cc(C)c2[nH]ccc2c1CN1CC[C@H]2C[C@H]1c1ccc(C(=O)NS(C)(=O)=O)cc1/C=C\CCCCCO2` [Ex. 68, (1^2S,1^4S,Z)-1^1-((5-methoxy-7-methyl-1H-indol-4-yl)methyl) —N-(methylsulfonyl)-10-oxa-1(2,4)-piperidina-2(1,2)-benzenacyclodecaphan-3-ene-24-carboxamide] as the compound, how does the IC50 read?
Answer: 674 nM

Question: `COc1cc(C)c2[nH]ccc2c1CN1CC[C@H]2C[C@H]1c1ccc(C(=O)O)cc1OCCn1cc(nn1)CO2` [Ex. 12, (2^2S,2^4S,Z)-2^1-((5-methoxy-7-methyl-1H-indol-4-yl)methyl)-5′H-3,8-dioxa-2(2,4)-piperidina-5(4,1)-triazola-1(1,2)-benzenacyclooctaphane-1^4-carboxylic acid] was tested. Which IC50 did it give?
Answer: 280 nM

Question: With `COc1cc(C)c2[nH]ccc2c1CN1CC[C@H]2C[C@H]1c1ccc(C(=O)NS(=O)(=O)C3CCCC3)cc1OCCCCCCO2` [Ex. 62, (1^2S,1^4S)—N-(cyclopentylsulfonyl)-1^1-((5-methoxy-7-methyl-1H-indol-4-yl)methyl)-3,10-dioxa-1(2,4)-piperidina-2(1,2)-benzenacyclodecaphane-2^4-carboxamide] as the compound, how does the IC50 read?
Answer: 293 nM

Question: With `CCS(=O)(=O)NC(=O)c1ccc2c(c1)OCCCCCO[C@H]1CCN(Cc3c(OC)cc(C)c4[nH]ccc34)[C@H]2C1` [Ex. 59, (1^2S,1^4S)—N-(ethylsulfonyl)-1^1-((5-methoxy-7-methyl-1H-indol-4-yl)methyl)-3,9-dioxa-1(2,4)-piperidina-2(1,2)-benzenacyclononaphane-2^4-carboxamide] as the compound, how does the IC50 read?
Answer: 244 nM

Question: With `COc1cc(C)c2[nH]ccc2c1CN1CC[C@H]2C[C@H]1c1ccc(C(=O)O)cc1OCC/C=C\CO2` [Ex. 9, (1^2S,1^4S,Z)-1^1-((5-methoxy-7-methyl-1H-indol-4-yl)methyl)-3,9-dioxa-1(2,4)-piperidina-2(1,2)-benzenacyclononaphan-6-ene-2^4-carboxylic acid] as the compound, how does the IC50 read?
Answer: 342 nM

Question: With `COc1cc(C)c2[nH]ccc2c1CN1CC[C@H]2C[C@H]1c1ccc(C(=O)NS(C)(=O)=O)cc1/C=C/CCCCCO2` [Ex. 69, (1^2S,1^4S,E)-1^1-((5-methoxy-7-methyl-1H-indol-4-yl)methyl)-N-(methylsulfonyl)-10-oxa-1(2,4)-piperidina-2(1,2)-benzenacyclodecaphan-3-ene-2^4-carboxamide] as the compound, how does the IC50 read?
Answer: 581 nM

Question: Which IC50 does the source give for `COc1cc(C)c2[nH]ccc2c1CN1CC[C@H]2C[C@H]1c1ccc(C(=O)NS(C)(=O)=O)cc1CCCCCCCCO2` [Ex. 65, (1^2S,1^4S)-1^1-((5-methoxy-7-methyl-1H-indol-4-yl)methyl)-N-(methylsulfonyl)-11-oxa-1(2,4)-piperidina-2(1,2)-benzenacycloundecaphane-2^4-carboxamide] here?
Answer: 139 nM

Question: For `COc1cc(C)c2[nH]ccc2c1CN1CC[C@H]2C[C@H]1c1ccc(C(=O)O)cc1OCCCCCCCO2` [Ex. 7, (1^2S,1^4S)_1^1-((5-methoxy-7-methyl-1H-indol-4-yl)methyl)-3,11-dioxa-1(2,4)-piperidina-2(1,2)-benzenacycloundecaphane-2^4-carboxylic acid], which IC50 is on record?
Answer: 384 nM

Question: For `COc1cc(C)c2[nH]ccc2c1CN1CC[C@H]2C[C@H]1c1ccc(C(=O)O)c3ccc(cc13)OCCC/C=C/CO2` [Ex. 48, (1^2S,1^4S,E)-1^1-((5-methoxy-7-methyl-1H-indol-4-yl)methyl)-3,10-dioxa-1(2,4)-piperidina-2(1,7)-naphthalenacyclodecaphan-7-ene-2^4-carboxylic acid], which IC50 is on record?
Answer: 83.7 nM

Question: How did the IC50 turn out when `COc1cc(C)c2[nH]ccc2c1CN1CC[C@H]2C[C@H]1c1ccc(C(=O)NS(C)(=O)=O)cc1CCCCCCCO2` [Ex. 71, (1^2S,1^4S)-1^1-((5-methoxy-7-methyl-1H-indol-4-yl)methyl)-N-(methylsulfonyl)-10-oxa-1(2,4)-piperidina-2(1,2)-benzenacyclodecaphane-2^4-carboxamide] was run?
Answer: 258 nM

Question: `COc1cc(C)c2[nH]ccc2c1CN1CC[C@H]2C[C@H]1c1ccc(C(=O)NS(=O)(=O)C(C)C)cc1OCCCCCO2` [Ex. 66, (1^2S,1^4S)—N-(isopropylsulfonyl)-1^1-((5-methoxy-7-methyl-1H-indol-4-yl)methyl)-3,9-dioxa-1(2,4)-piperidina-2(1,2)-benzenacyclononaphane-2^4-carboxamide] was tested. Which IC50 did it give?
Answer: 411 nM

Question: For `COc1cc(C)c2[nH]ccc2c1CN1CC[C@H]2CCCCCCCOc3cc(C(=O)O)ccc3[C@@H]1C2` [Ex. 78, (1^2S,1^4R)-1^1-((5-methoxy-7-methyl-1H-indol-4-yl)methyl)-3-oxa-1(2,4)-piperidina-2(1,2)-benzenacyclodecaphane-2^4-carboxylic acid], which IC50 is on record?
Answer: 731 nM

Question: How did the IC50 turn out when `COc1cc(C)c2[nH]ccc2c1CN1CC[C@H]2C[C@H]1c1ccc(C(=O)O)cc1OCCCn1cc(nn1)CO2` [Ex. 13, (2^2S,2^4S,Z)-2^1-((5-methoxy-7-methyl-1H-indol-4-yl)methyl)-5′H-3,9-dioxa-2(2,4)-piperidina-5(4,1)-triazola-1(1,2)-benzenacyclononaphane-1^4-carboxylic acid] was run?
Answer: 1110 nM

Question: How did the IC50 turn out when `COc1cc(C)c2[nH]ccc2c1CN1CC[C@H]2C[C@H]1c1ccc(C(=O)NS(=O)(=O)C3CC3)cc1OCCCCCO2` [Ex. 60, (1^2S,1^4S)—N-(cyclopropylsulfonyl)-1^1-((5-methoxy-7-methyl-1H-indol-4-yl)methyl)-3,9-dioxa-1(2,4)-piperidina-2(1,2)-benzenacyclononaphane-2^4-carboxamide] was run?
Answer: 231 nM

Question: Which IC50 does the source give for `COc1cc(C)c2[nH]ccc2c1CN1CC[C@H]2C[C@H]1c1ccc(C(=O)O)cc1CCCCCCCCCO2` [Ex. 72, (1^2S,1^4S)-1^1-((5-methoxy-7-methyl-1H-indol-4-yl)methyl)-12-oxa-1(2,4)-piperidina-2(1,2)-benzenacyclododecaphane-2^4-carboxylic acid] here?
Answer: 129 nM

Question: `COc1cc(C)c2[nH]ccc2c1CN1CC[C@H]2C[C@H]1c1ccc(C(=O)O)cc1/C=C/CCCCCCCO2` [Ex. 73, (1^2S,1^4S,Z)-1^1-((5-methoxy-7-methyl-1H-indol-4-yl)methyl)-12-oxa-1(2,4)-piperidina-2(1,2)-benzenacyclododecaphan-3-ene-2^4-carboxylic acid] was tested. Which IC50 did it give?
Answer: 271 nM

Question: For `COc1cc(C)c2[nH]ccc2c1CN1CCC2CC1c1ccc(C(=O)O)c3ccc(cc13)OCCCCCCO2` (stereo not drawn) [Ex. 52, (1^2R,1^4R)-1^1-((5-methoxy-7-methyl-1H-indol-4-yl)methyl)-3,10-dioxa-1(2,4)-piperidina-2(1,7)-naphthalenacyclodecaphane-2^4-carboxylic acid], which IC50 is on record?
Answer: > 10000 nM

Question: How did the IC50 turn out when `COc1cc(C)c2[nH]ccc2c1CN1CC[C@H]2C[C@H]1c1ccc(C(=O)NS(C)(=O)=O)c3ccc(cc13)OCCCCCCO2` [Ex. 56, (1^2S,1^4S)-1^1-((5-methoxy-7-methyl-1H-indol-4-yl)methyl)-N-(methylsulfonyl)-3,10-dioxa-1(2,4)-piperidina-2(1,7)-naphthalenacyclodecaphane-2^4-carboxamide] was run?
Answer: 375 nM
